Laboratory results: patent US9072306B2, “Method for the pre- or post-harvest treatment of plant products, using phosphonic acid and an essential oil” (priority 2010, dated 2015)

Experiments:
[1] = system: Colletotrichum gloeosporioides; conditions: in vivo; cited from earlier work
Rhizoctonia = experiment: Viability of Rhizoctonia propagules on treated potato tubers in storage
Method: (§1) The efficacy of combinations of essential oils and potassium salt of phosphonic acid (potassium sesquiphosphite) to reduce the viability of fungal infection and diseases in potatoes during storage was measured in the following manner: the tubers were collected. 500 tubers were selected for their average infection of Rhizoctonia (variety Nicola Bio); Helminthosporium solani (variety Vivaldi traditional). The tubers were incubated at 15° C. for 45 days to allow the development of symptoms. 50 tubers (6 to 8 kg) were treated with a composition of essential oil (at 570 ppm or 1140 ppm), a composition of potassium salt of phosphonic acid at 0.6% or 1.2% by weight, as well as mixtures thereof. The phosphonic acid solution was sprayed at ambient temperature at an application rate of 75 mL per 5 kg. 50 mL of clove oil solution were sprayed out. The tubers were incubated at 8° C. for 45 days after treatment. The viability of colonies of Rhizoctonia and Helminthosporium was monitored.

Helminthosporium solani = experiment: Viability of Helminthosporium solani propagules on treated potato tubers in storage
Method: as §1

[2] = system: Colletotrichum gloeosporioides; experiment: Treatment of olive trees affected by Colletotrichum gloeosporioides; format: in vivo; conditions: for Percentage of olive leaves with symptoms of infection: dose 0.5% of potassium sesquiphosphite composition alone
Excerpt: A composition at about 20% of clove oil and a composition of the potassium salt of phosphonic acid were separately applied at doses of 0.3% and 0.5% respectively, as well as in combination with the same doses.

Penicilliums = conditions: ambient temperature, treatment doses close to 10,000 ppm, oranges; cited from earlier work
Geotrichum sp = experiment: Efficacy against Geotrichum sp on inoculated citrus (mandarin ortanique); format: in vivo; conditions: K-Phos 500 ml/100 L (375 g/100 L potassium sesquiphosphite), spraying at ambient temperature
Method: The fruits were inoculated with a suspension of spores of Geotrichum sp after perforation of the skin. […] When clove oil alone was applied, the fruits were immersed for 2 min in a bath at a temperature of between 49° C. and 51° C. The fruits were stored. At various time intervals, the fruits were individually inspected for signs of phytotoxicity and efficacy by determining the percentage of the surface of the skin affected and the stage of development of the disease in the controls. The variables studied were the incidence (percentage of fruit affected) and severity of the attack (percentage of the fruit surface affected by the disease).

[3] = 570 ppm oil/terpene alone, potato tubers sprayed, 45 days at 8° C. after treatment
[4] = 0.6% potassium sesquiphosphite alone, potato tubers sprayed at ambient temperature, 45 days at 8° C. after treatment
[5] = 1.2% potassium sesquiphosphite alone, potato tubers sprayed at ambient temperature, 45 days at 8° C. after treatment

O=C1C2CC=CCC2C(=O)N1SC(Cl)(Cl)Cl (stereo not drawn) [Captan]
activity in control of the disease in olive orchards [1]: low level of activity

Cc1ccc(C(C)C)cc1O [carvacrol]
Viability of Propagules (%) Rhizoctonia (Rhizoctonia; [3]): 52%
Viability of Propagules (%) Helminthosporium solani (Helminthosporium solani; [3]): 50%

O=[PH](O)O [phosphonic acid, Phosphonic acid]
activity compared to the control (olive leaf infection) ([2]; applied alone): low level of activity
activity on Penicilliums (Penicilliums): very weak
control of the growth of Rhizoctonia (Rhizoctonia; applied alone): altogether insufficient degree
control of the growth of Helminthosporium solani (Helminthosporium solani; applied alone): altogether insufficient degree

Cc1ccc(C(C)C)c(O)c1 [thymol]
Viability of Propagules (%) Rhizoctonia (Rhizoctonia; Rhizoctonia, in vivo, 45 days, 570 ppm): 75%
Viability of Propagules (%) Helminthosporium solani (Helminthosporium solani; Helminthosporium solani, in vivo, 45 days, 570 ppm): 45%

potassium sesquiphosphite
Percentage of olive leaves with symptoms of infection ([2]; t1 + 90 days): 50%
Percentage of olive leaves with symptoms of infection ([2]; t1): 41%
Viability of Propagules (%) Rhizoctonia (Rhizoctonia; [4]): 60%
Viability of Propagules (%) Rhizoctonia (Rhizoctonia; [5]): 22%
Viability of Propagules (%) Helminthosporium solani (Helminthosporium solani; [4]): 30%
Viability of Propagules (%) Helminthosporium solani (Helminthosporium solani; [5]): 6%
Percentage of fruit affected after 14 days, value in parentheses (activity compared to the control) (Geotrichum sp): no activity

CC(C)=CCC/C(C)=C/CO [geraniol]
Viability of Propagules (%) Rhizoctonia (Rhizoctonia; [3]): 83%
Viability of Propagules (%) Helminthosporium solani (Helminthosporium solani; [3]): 38%
